Values quoted from earlier work as cited in patent publication US20180015164A1, “A Composition Containing Protective Agent for Singlet Oxygen and A Preparation Method therefor” (Nanjing University, priority 2016, published 2018).

conditions: in the named solution (solvent / protective agent)

Row | Structure (SMILES) | lifetime of singlet oxygen
1 | S=C=S [carbon disulfide] | 200±60 μs
2 | FC(Cl)(Cl)Cl [Freon 11] | 1000±200 μs
3 | CO [methyl alcohol] | 7 μs
4 | CCO [ethyl alcohol] | 12 μs
5 | FC(F)(F)C(F)(F)C(F)(F)C(F)(F)C(F)(F)C(F)(F)F [perfluorohexane] | 600±200 μs
6 | O [water] | 2 μs
7 | [2H]O[2H] [deuteroxide] | 20 μs
8 | CCCCCC [hexane] | 17 μs
9 | ClC(Cl)Cl [chloroform] | 60±15 μs
